Laboratory results taken from PubChem BioAssay (NCI).
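Tested at 5 concentrations; 48 h exposure; 96-well plates; endpoints linearly interpolated, else capped at highest concentration. The concentration for full growth arrest is given as TGI.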

Tests used:
Test in all cases: DTP human tumour cell line panel, 48 h
TK-10 renal = tested on: TK-10 renal
RXF 393 renal = tested on: RXF 393 renal
OVCAR-3 ovarian = tested on: OVCAR-3 ovarian
SK-MEL-28 melanoma = tested on: SK-MEL-28 melanoma
SF-268 CNS = tested on: SF-268 CNS
SN12C renal = tested on: SN12C renal
UO-31 renal = tested on: UO-31 renal
CCRF-CEM leukemia = tested on: CCRF-CEM leukemia
K-562 leukemia = tested on: K-562 leukemia
MALME-3M melanoma = tested on: MALME-3M melanoma

Structure (SMILES) | TGI (TK-10 renal) | TGI (RXF 393 renal) | TGI (OVCAR-3 ovarian) | TGI (SK-MEL-28 melanoma) | TGI (SF-268 CNS) | TGI (SN12C renal) | TGI (UO-31 renal) | TGI (CCRF-CEM leukemia) | TGI (K-562 leukemia) | TGI (MALME-3M melanoma)
COC(=O)C1=C(C(=O)OC)C2CCC1CC2=O (stereo unspecified) | > 100 µM | > 100 µM | > 100 µM | > 100 µM | > 100 µM | > 100 µM | > 100 µM | > 100 µM | > 100 µM | > 100 µM
O=C1CSC2(CC(/C=C/c3ccccc3[N+](=O)[O-])=NN2c2cccc(S(=O)(=O)O)c2)N1c1nc2ccccc2s1 (stereo unspecified) | 29.4 µM | > 75 µM | – | > 75 µM | 41.1 µM | 54.9 µM | 25.1 µM | 43.5 µM | 63.3 µM | > 75 µM
c1ccc2c(CCNC3=NCCO3)cccc2c1 | > 10 µM | > 10 µM | > 10 µM | > 10 µM | > 10 µM | – | > 10 µM | > 10 µM | > 10 µM | > 10 µM
COc1ccc(OC)c2c1-c1nnnn1CCC2(C)C | > 100 µM | > 100 µM | > 100 µM | > 100 µM | > 100 µM | > 100 µM | > 100 µM | > 100 µM | > 100 µM | > 100 µM
CCN(CC)C(=O)N1CN(c2ccccc2)C2(CCN(CCCC3(c4ccc(F)cc4)OCCO3)CC2)C1=O | 38.7 µM | 27.8 µM | 31.5 µM | 26.7 µM | 45.5 µM | 32.8 µM | 35.9 µM | 45.9 µM | – | 36.5 µM
N#C[C@H](c1nc2ccccc2[nH]1)c1nc2ccccc2nc1Cl | 37.4 µM | > 100 µM | > 100 µM | 49 µM | – | 30.9 µM | > 76.7 µM | 10.9 µM | > 100 µM | 31.7 µM
C=C(C)[C@H]1C=C[C@@H](OC(C)=O)[C@@]2(COC(C)=O)[C@H](OC(=O)CCC)[C@H]3[C@@H](OC(C)=O)[C@@H](C)C[C@]3(O)C(=O)[C@@](C)(OC(C)=O)[C@H]12 | > 100 µM | > 100 µM | – | > 100 µM | > 100 µM | > 100 µM | > 100 µM | > 100 µM | > 100 µM | > 100 µM
CC(=O)Nc1ccc(C(=O)NN2C(=O)C(Cl)C2/C=C/c2ccccc2)cc1 (stereo unspecified) | > 100 µM | – | > 100 µM | > 100 µM | > 100 µM | – | > 100 µM | > 100 µM | > 100 µM | > 100 µM
COc1ccc(/C=C2\NC(=S)N(CN3CCOCC3)C2=O)cc1 | > 100 µM | – | > 100 µM | > 100 µM | > 100 µM | > 100 µM | > 100 µM | > 100 µM | > 100 µM | > 100 µM
ClC1(Cl)C2CCOC21n1cnc2ccccc21 (stereo unspecified) | – | > 100 µM | > 100 µM | > 100 µM | > 100 µM | > 100 µM | > 100 µM | > 100 µM | > 100 µM | > 100 µM
